# Results as given in patent US9877947B2, “C-terminal HSP90 inhibitors to treat pituitary adenomas” (priority 2013, dated 2018).
# Assays:
# Format in all cases: cell-based
# [1] = test system: GR (glucocorticoid receptor); assay: Evaluation of GR activity (MTV-Luc reporter); details: AtT-20 cells, 72 hours, in combination with dexamethasone
# Procedure: AtT-20 cells were treated for 72 hours with different doses of (A) 17-AAG, (B) silibinin, or (C) novobiocin. At the end of the treatment, GR activity was measured by transfection of the reporter construct MTV-luc.
# AtT-20 cells (3×10^5) were transfected for 3 hours with 1 μg of the MTV-Luc reporter plasmid in 6-well plates. Cell transfection was performed with SuperFect (Qiagen GmbH). After an overnight incubation in culture medium with 10% fetal calf serum, the cells were treated with different HSP90 inhibitors in combination with dexamethasone. Luciferase activity in cell lysates was measured with a Berthold luminometer after addition of luciferin and ATP. Transfection efficiency was determined using the Rous sarcoma virus-β-gal construct. Data are expressed as the ratio of luciferase activity to β-gal activity.
# [2] = test system: Cdk1; assay: Western blot, Cdk1 degradation; details: AtT-20 cells
# Procedure: (§1) AtT-20 cells were treated with (A) 17-AAG, (B) silibinin, or (C) novobiocin. At the end of the treatment, the GR, Cdk1 and actin proteins were detected by Western blot.
# (§2) AtT-20 cells in 6-well plates were treated with different HSP90 inhibitors for the times indicated in each experiment. At the end of the treatment, cell lysates were prepared in lysis buffer supplemented with protease and phosphatase inhibitor cocktail (Roche). Samples of the lysates were separated by PAGE and blotted onto membranes using standard western blot procedures with gels and buffers from Invitrogen. After blocking the membranes with 5% non-fat dry milk, primary antibodies against GR (H-300, Santa Cruz), Cdk1 (BD Transduction Laboratories), and actin (Cell Signalling) were added. Anti-mouse and anti-rabbit horseradish peroxidase-conjugated secondary antibodies were used to detect the primary antibodies. The detection was carried out using Lumilight (Roche) or ECL-Plus (Thermo Scientific).
# [3] = test system: GR (glucocorticoid receptor) protein; assay: Western blot, induction of GR degradation; details: AtT-20 cells
# Procedure: as §1, §2
# [4] = test system: corticotroph tumor cell line AtT-20; assay: Proliferation assay (WST-1 assay); details: 96 hours treatment, different doses, WST-1, vs vehicle = 100%
# Procedure: AtT-20 cells were treated for 96 hours with different doses of (A) 17-AAG, (B) silibinin, or (C) novobiocin.
# Cell proliferation was measured with the WST-1 proliferation assay (Roche Applied Science). This assay measures the activity of the mitochondrial succinate dehydrogenase. After 4 days of treatment with different HSP90 inhibitors, the WST-1 reagent was added to AtT-20 cell cultures in 96-well plates to a final dilution of 1:10. The cells were incubated for 2 hours and then the absorbance of the reaction product was measured with an ELISA reader at 440 nm, following the manufacturer's instructions.
# [5] = test system: GH3 cells; assay: Cell-viability assay WST-1 (toxicity)
# [6] = test system: GH3 prolactinoma cells; assay: Evaluation of prolactin secretion (RIA); details: 48 hours
# Procedure: 10,000 GH3 prolactinoma cells obtained from the American Type Culture Collection (Rockville, Md.) were seeded onto 96-well plates in DMEM with 10% fetal calf serum. After 24 hours the medium was changed and the attached cells were treated with different doses of the HSP90 inhibitors 17-AAG or silibinin, as indicated in FIG. 10. After 48 hours, culture supernatants were collected and the concentration of prolactin was measured by RIA.
# [7] = test system: GH3 somatotroph adenoma cells; assay: Evaluation of growth hormone secretion (RIA); details: 48 hours
# Procedure: 10,000 GH3 somatotroph adenoma cells obtained from the American Type Culture Collection (Rockville, Md.) were seeded onto 96-well plates in DMEM with 10% fetal calf serum. After 24 hours the medium was changed and the attached cells were treated with different doses of the HSP90 inhibitors 17-AAG or silibinin, as indicated in the FIG. 11. After 48 hours, culture supernatants were collected and the concentration of growth hormone was measured by RIA.
# [8] = test system: AtT-20 cells; assay: Evaluation of ACTH secretion (RIA); details: for ACTH secretion: 48 hours, plus dexamethasone 100 nM
# Procedure: AtT-20 cells were treated for 48 hours with the glucocorticoid dexamethasone (100 nM) plus different doses of 17-AAG or silibinin, as indicated in the figure. At the end of the treatment, ACTH was measured by RIA.
# AtT-20 cells were treated for 72 hours with 10 μM silibinin in combination with different doses of octreotide, as indicated in the figure.
# AtT-20 cells were seeded in 96-well plates in cell culture medium containing dexamethasone to mimic the high glucocorticoid concentration in the blood of patients with Cushing's disease. At the end of the treatment, the cell culture supernatants were collected and frozen. ACTH secreted into the cell culture medium was measured by radio-immunoassay (RIA) in comparison with known amounts of ACTH standards diluted in the same medium. […] The bound and free fractions were separated by centrifugation with charcoal and the radioactivity was measured in a beta-counter.
# [9] = WST-1, growth hormone experiment (Example 07)
# [10] = WST-1, prolactin experiment (Example 06)
SMILES,transcriptional activity of GR [1],Cdk1 degradation [2],GR degradation [3],proliferation of AtT-20 cells [4],"toxicity for GH3 cells [5, 9]","toxicity for GH3 cells [5, 10]",prolactin secretion [6],growth hormone secretion [7],ACTH secretion [8],"ACTH secretion in combination with octreotide ([8]; 72 hours, 10 μM silibinin plus sub-optimal concentrations of octreotide)"
CO[C@@H]1[C@@H](OC(N)=O)[C@@H](O)[C@H](Oc2ccc3c(O)c(NC(=O)c4ccc(O)c(CC=C(C)C)c4)c(=O)oc3c2C)OC1(C)C [novobiocin],increased the transcriptional activity of GR,induce degradation of Cdk1,did not produce this effect,strongly inhibit the proliferation,–,–,–,–,–,–
"C=CCNC1=C2C[C@@H](C)C[C@H](OC)[C@H](O)[C@@H](C)/C=C(\C)[C@H](OC(N)=O)[C@@H](OC)/C=C\C=C(/C)C(=O)NC(=CC1=O)C2=O [17-AAG, 17-N-Allylamino-17-demethoxygeldanamycin]",inhibited this activity,induce degradation of Cdk1,induces GR degradation,strongly inhibit the proliferation,Higher concentrations of 17-AAG were toxic,Higher concentrations of 17-AAG were toxic,minimally inhibited prolactin secretion only at a concentration of 1 μM,did not inhibit growth hormone secretion at any of the tested concentrations,has no effect on ACTH secretion,–
"COc1cc([C@H]2Oc3cc([C@H]4Oc5cc(O)cc(O)c5C(=O)[C@@H]4O)ccc3O[C@@H]2CO)ccc1O [silibinin, (2R,3R)-3,5,7-trihydroxy-2-[(2R,3R)-3-(4-hydroxy-3-methoxyphenyl)-2-(hydroxymethyl)-2,3-dihydrobenzo[b][1,4]dioxin-6-yl]chroman-4-one]",increased the transcriptional activity of GR,induce degradation of Cdk1,did not produce this effect,strongly inhibit the proliferation,"no toxicity was observed, even at high concentrations","no toxicity was observed, even at high concentrations",significantly inhibited the secretion of prolactin,significantly inhibited the secretion of growth hormone,inhibits ACTH secretion,increases the inhibition of ACTH secretion
